Experimental data from patent US8450341B2, “Substituted indolin-2-one derivatives and their use as P38 mitogen-activated kinase inhibitors” (Almirall, S.A., priority 2008, dated 2013).

Molecular target: T1, human p38alfa (SAPKa) enzyme (Homo sapiens, UniProt Q16539)
T1 construct: purchased University of Dundee
Assay: Inhibition assay: p38alfa enzymatic activity (FRET, biotinylated ATF2 substrate)
Assay type: biochemical
Details: 1 h pre-incubation; ATF2 0.62 μM and ATP 60 μM; 1 h at 25° C.; read-out: p38α IC50
Procedure: Various concentrations of the test compound or vehicle controls were pre-incubated for one hour with 0.055 μg/ml of the human p38alfa (SAPKa) enzyme (obtained from University of Dundee). […] Addition of the detection reagents, streptavidin-XL665 and anti-phosphoresidue antibody coupled to Europium cryptate, caused the juxtaposition of the cryptate and the XL665 fluorophore, resulting in fluorescence energy transfer (FRET). The FRET intensity depends on the amount of bounded cryptate antibody, which is proportional to the extent of substrate phosphorylation. FRET intensity was measured using Victor 2V spectrofluorometer.
Data were analyzed by non-linear regression (Hill equation) to generate a dose-response curve.

T1 sequence (Q16539 whole entry): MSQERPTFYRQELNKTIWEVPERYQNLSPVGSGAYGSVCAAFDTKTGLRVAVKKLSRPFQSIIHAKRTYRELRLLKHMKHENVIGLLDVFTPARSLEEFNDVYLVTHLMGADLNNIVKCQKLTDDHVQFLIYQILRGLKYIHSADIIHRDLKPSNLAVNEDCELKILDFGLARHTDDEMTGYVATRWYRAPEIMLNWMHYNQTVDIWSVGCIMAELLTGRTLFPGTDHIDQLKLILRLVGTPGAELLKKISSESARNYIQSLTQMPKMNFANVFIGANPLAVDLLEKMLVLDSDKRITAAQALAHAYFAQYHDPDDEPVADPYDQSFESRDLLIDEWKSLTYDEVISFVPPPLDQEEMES

SMILES	IC50
Cc1ccc2c(NC3CC3)noc2c1-c1ccc2c(c1)NC(=O)C21CCCC1 [Example 1, 6′-(3-(Cyclopropylamino)-6-methylbenzo[d]isoxazol-7-yl)spiro[cyclopentane-1,3′-indolin]-2′-one]	0.9 nM
O=C1Nc2cc(-c3cccc4c(NC5CC5)noc34)ccc2C12CCCC2 [Example 2, 6′-(3-(Cyclopropylamino)benzo[d]isoxazol-7-yl)spiro[cyclopentane-1,3′-indolin]-2′-one]	39 nM
O=C1Nc2cc(-c3cccc4c(NC5CC5)noc34)c(Cl)cc2C12CCCC2 [Example 3, 5′-Chloro-6′-(3-(cyclopropylamino)benzo[d]isoxazol-7-yl)spiro[cyclopentane-1,3′-indolin]-2′-one]	4 nM
Cc1ccc2c(NC3CC3)noc2c1-c1ccc2c(c1)NC(=O)C21CCOCC1 [Example 4, 6-(3-(Cyclopropylamino)-6-methylbenzo[d]isoxazol-7-yl)-2′,3′,5′,6′-tetrahydrospiro [indoline-3,4′-pyran]-2-one]	0.2 nM
Cc1ccc2c(NC3CC3)noc2c1-c1ccc2c(c1)NC(=O)C21CCC(F)(F)CC1 [Example 5, 6′-(3-(Cyclopropylamino)-6-methylbenzo[d]isoxazol-7-yl)-4,4-difluorospiro [cyclohexane-1,3′-indolin]-2′-one]	0.06 nM
Cc1ccc2c(NC3CC3)noc2c1-c1ccc2c(c1)NC(=O)C2(C)C [Example 6, 6-(3-(Cyclopropylamino)-6-methylbenzo[d]isoxazol-7-yl)-3,3-dimethylindolin-2-one]	0.4 nM
Cc1ccc2c(NC3CC3)noc2c1-c1cnc2c(c1)NC(=O)C21CCOCC1 [Example 7, 6′-(3-(cyclopropylamino)-6-methylbenzo[d]isoxazol-7-yl)-2,3,5,6-tetrahydrospiro[pyran-4,3′-pyrrolo[3,2-b]pyridin]-2′(1′H)-one]	6.3 nM
Cc1ccc2c(NC3CC3)noc2c1-c1cnc2c(c1)NC(=O)C21CCC(C)(O)CC1 (stereo not drawn) [Example 8, 6′-(3-(cyclopropylamino)-6-methylbenzo[d]isoxazol-7-yl)-4-hydroxy-4-methylspiro[cyclohexane-1,3′-pyrrolo[3,2-b]pyridin]-2′(1′H)-one]	0.65 nM
Cc1ccc2c(NC3CC3)noc2c1-c1cnc2c(c1)NC(=O)C21CCC(C)(O)CC1 (stereo not drawn) [Example 9, 6′-(3-(cyclopropylamino)-6-methylbenzo[d]isoxazol-7-yl)-4-hydroxy-4-methylspiro[cyclohexane-1,3′-pyrrolo[3,2-b]pyridin]-2′(1′H)-one]	0.4 nM
Cc1ccc2c(N)noc2c1-c1ccc2c(c1)NC(=O)C21CCOCC1 [Example 11, 6-(3-Amino-6-methylbenzo[d]isoxazol-7-yl)-2′,3′,5′,6′-tetrahydrospiro[indoline-3,4′-pyran]-2-one]	10 nM
Cc1ccc2c(N)noc2c1-c1ccc2c(c1)NC(=O)C21CCC(C)(O)CC1 (stereo not drawn) [Example 12, 6′-(3-amino-6-methylbenzo[d]isoxazol-7-yl)-4-hydroxy-4-methylspiro[cyclohexane-1,3′-indolin]-2′-one]	0.9 nM
Cc1ccc2c(N)noc2c1-c1ccc2c(c1)NC(=O)C21CCC(OCCN2CCOCC2)CC1 (stereo not drawn) [Example 13, 6′-(3-amino-6-methylbenzo[d]isoxazol-7-yl)-4-(2-morpholinoethoxy)spiro[cyclohexane-1,3′-indolin]-2′-one]	3.3 nM
Cc1ccc2c(N)noc2c1-c1ccc2c(c1)NC(=O)C21CCC(F)(F)CC1 [Example 14, 6′-(3-Amino-6-methyl-1,2-benzisoxazol-7-yl)-4,4-difluorospiro[cyclohexane-1,3′-indol]-2′(1′H)-one]	1 nM
Cc1ccc2c(N)noc2c1-c1ccc2c(c1)NC(=O)C2(C)C [Example 15, 6-(3-Amino-6-methyl-1,2-benzisoxazol-7-yl)-3,3-dimethyl-1,3-dihydro-2H-indol-2-one]	38 nM
Cc1ccn2c(NCC3CC3)nnc2c1-c1ccc2c(c1)NC(=O)C21CCCC1 [Example 20, 6′-(3-(cyclopropylmethylamino)-7-methyl-[1,2,4]triazolo[4,3-a]pyridin-8-yl)spiro[cyclopentane-1,3′-indolin]-2′-one]	20 nM
